# Source: patent publication US20260285850A1, “SUBSTITUTED OXAZOLIDINONES AND IMIDAZOLINONES AS HERBICIDES” (FMC CORPORATION, priority 2023, published 2026)
# Assays:
# Assay type in all cases: in vivo
# [1] = tested on: ragweed (common ragweed, Ambrosia artemisiifolia); assay: Test A preemergence soil spray, visual injury rating 0-100; details: 10 days, 0 = no effect, 100 = complete control
# How it was run: (§1)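 Plants were grown in a loam soil-sand blend and treated with test chemical in a non-phytotoxic solvent mixture containing surfactant, either sprayed on soil preemergence or applied postemergence to 2-10 cm plants. After 10 days in a greenhouse, injury was scored visually against untreated controls, 0 meaning no effect and 100 complete control.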
# [2] = tested on: green foxtail (Setaria viridis); assay: as above; details: 10 days, 0 = no effect, 100 = complete control
# How it was run: as §1
# corn (Zea mays) [3] = assay: as above; details: 10 days, 0 = no effect, 100 = complete control
# How it was run: as §1
# [4] = tested on: oat, wild (wild oat, Avena fatua); assay: as above; details: 10 days, 0 = no effect, 100 = complete control
# How it was run: as §1
# kochia (Bassia scoparia) [5] = assay: as above; details: 10 days, 0 = no effect, 100 = complete control
# How it was run: as §1
# [6] = tested on: palmer (palmer amaranth, palmer pigweed, Amaranthus palmeri); assay: as above; details: 10 days, 0 = no effect, 100 = complete control
# How it was run: as §1
# [7] = tested on: barnyardgrass (Echinochloa crus-galli); assay: as above; details: 10 days, 0 = no effect, 100 = complete control
# How it was run: as §1
# [8] = tested on: blackgrass (Alopecurus myosuroides); assay: as above; details: 10 days, 0 = no effect, 100 = complete control
# How it was run: as §1
# [9] = tested on: ryegrass, Italian (italian ryegrass, Lolium multiflorum); assay: as above; details: 10 days, 0 = no effect, 100 = complete control
# How it was run: as §1
# [10] = tested on: wheat (Triticum aestivum); assay: as above; details: 10 days, 0 = no effect, 100 = complete control
# How it was run: as §1
# soybean (Glycine max) [11] = assay: as above; details: 10 days, 0 = no effect, 100 = complete control
# How it was run: as §1
# [12] = tested on: ragweed (common ragweed, Ambrosia artemisiifolia); assay: Test A postemergence application, visual injury rating 0-100; details: 10 days
# How it was run: as §1
# [13] = tested on: green foxtail (Setaria viridis); assay: as above; details: 10 days
# How it was run: as §1
# corn (Zea mays) [14] = assay: as above; details: 10 days
# How it was run: as §1
# [15] = tested on: oat, wild (wild oat, Avena fatua); assay: as above; details: 10 days
# How it was run: as §1
# kochia (Bassia scoparia) [16] = assay: as above; details: 10 days
# How it was run: as §1
# [17] = tested on: galium (catchweed bedstraw, Galium aparine); assay: as above; details: 10 days
# How it was run: as §1
# [18] = tested on: horseweed (Erigeron canadensis); assay: as above; details: 10 days
# How it was run: as §1
# [19] = tested on: palmer (palmer amaranth, palmer pigweed, Amaranthus palmeri); assay: as above; details: 10 days
# How it was run: as §1
# [20] = tested on: barnyardgrass (Echinochloa crus-galli); assay: as above; details: 10 days
# How it was run: as §1
# [21] = tested on: blackgrass (Alopecurus myosuroides); assay: as above; details: 10 days
# How it was run: as §1
# [22] = tested on: ryegrass, Italian (italian ryegrass, Lolium multiflorum); assay: as above; details: 10 days
# How it was run: as §1
# [23] = tested on: wheat (Triticum aestivum); assay: as above; details: 10 days
# How it was run: as §1
# soybean (Glycine max) [24] = assay: as above; details: 10 days
# How it was run: as §1
# [25] = tested on: sedge, umbrella (small-flower umbrella sedge, Cyperus difformis); assay: Test B flooded paddy test, visual plant response rating 0-100; details: 250 g ai/ha, Flood, applied to paddy water, evaluated after 13 days
# How it was run: (§2)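 Each species was raised to two leaves before flooding to a 3 cm depth and dosing the water with compound. Injury was assessed by eye after 13 days under greenhouse conditions.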
# [26] = tested on: barnyardgrass (Echinochloa crusgalli); assay: as above; details: 250 g ai/ha, Flood, applied to paddy water, evaluated after 13 days
# How it was run: as §2
# rice (Oryza sativa) = assay: as above; details: 250 g ai/ha, Flood, applied to paddy water, evaluated after 13 days
# How it was run: as §2
# [27] = tested on: ducksalad (Heteranthera limosa); assay: as above; details: 250 g ai/ha, Flood, applied to paddy water, evaluated after 13 days
# How it was run: as §2
# [28] = 31 g ai/ha, postemergence, 0 = no effect, 100 = complete control
# [29] = Postemergence, 125 g ai/ha, 0 is no effect, 100 is complete control
structure (smiles),measurement,setting,value
CC1(C(=O)NC2CCC(C(=O)NS(C)(=O)=O)C2)CN(c2cc(F)cc(F)c2)C(=O)O1 (stereo not shown) [Compound 13],Ragweed plant response rating (0-100),[1]; 31 g ai/ha,40
same,Ragweed plant response rating (0 to 100 scale),[1]; 125 g ai/ha,20
same,"Foxtail, Green plant response rating (0-100)",[2]; 31 g ai/ha,0
same,"Foxtail, Green plant response rating (0 to 100 scale)",[2]; 125 g ai/ha,50
same,Corn plant response rating (0-100),corn (Zea mays) [3]; 31 g ai/ha,0
same,Corn plant response rating (0 to 100 scale),corn (Zea mays) [3]; 125 g ai/ha,0
same,"Oat, Wild plant response rating (0-100)",[4]; 31 g ai/ha,0
same,"Oat, Wild plant response rating (0 to 100 scale)",[4]; 125 g ai/ha,20
same,Kochia plant response rating (0-100),kochia (Bassia scoparia) [5]; 31 g ai/ha,0
same,Kochia plant response rating (0 to 100 scale),kochia (Bassia scoparia) [5]; 125 g ai/ha,0
same,"Amaranth, Palmer plant response rating (0-100)",[6]; 31 g ai/ha,0
same,"Amaranth, Palmer plant response rating (0 to 100 scale)",[6]; 125 g ai/ha,0
same,Barnyardgrass plant response rating (0-100),[7]; 31 g ai/ha,0
same,Barnyardgrass plant response rating (0 to 100 scale),[7]; 125 g ai/ha,20
same,Blackgrass plant response rating (0-100),[8]; 31 g ai/ha,20
same,Blackgrass plant response rating (0 to 100 scale),[8]; 125 g ai/ha,50
same,"Ryegrass, Italian plant response rating (0-100)",[9]; 31 g ai/ha,20
same,"Ryegrass, Italian plant response rating (0 to 100 scale)",[9]; 125 g ai/ha,90
same,Wheat plant response rating (0-100),[10]; 31 g ai/ha,0
same,Wheat plant response rating (0 to 100 scale),[10]; 125 g ai/ha,80
same,Soybean plant response rating (0-100),soybean (Glycine max) [11]; 31 g ai/ha,0
same,Soybean plant response rating (0 to 100 scale),soybean (Glycine max) [11]; 125 g ai/ha,0
same,Ragweed plant response rating (0-100),[12]; [28],0
same,Ragweed plant response rating (0 to 100 scale),[12]; [29],20
same,"Foxtail, Green plant response rating (0-100)",[13]; [28],0
same,"Foxtail, Green plant response rating (0 to 100 scale)",[13]; [29],50
same,Corn plant response rating (0-100),corn (Zea mays) [14]; [28],0
same,Corn plant response rating (0 to 100 scale),corn (Zea mays) [14]; [29],30
same,"Oat, Wild plant response rating (0-100)",[15]; [28],10
same,"Oat, Wild plant response rating (0 to 100 scale)",[15]; [29],50
same,Kochia plant response rating (0-100),kochia (Bassia scoparia) [16]; [28],0
same,Kochia plant response rating (0 to 100 scale),kochia (Bassia scoparia) [16]; [29],50
same,Galium plant response rating (0-100),[17]; [28],0
same,Galium plant response rating (0 to 100 scale),[17]; [29],70
same,Horseweed plant response rating (0-100),[18]; [28],0
same,Horseweed plant response rating (0 to 100 scale),[18]; [29],20
same,"Amaranth, Palmer plant response rating (0-100)",[19]; [28],10
same,"Amaranth, Palmer / Pigweed, Palmer plant response rating (0 to 100 scale)",[19]; [29],90
same,Barnyardgrass plant response rating (0-100),[20]; [28],10
same,Barnyardgrass plant response rating (0 to 100 scale),[20]; [29],70
same,Blackgrass plant response rating (0-100),[21]; [28],10
same,Blackgrass plant response rating (0 to 100 scale),[21]; [29],60
same,"Ryegrass, Italian plant response rating (0-100)",[22]; [28],20
same,"Ryegrass, Italian plant response rating (0 to 100 scale)",[22]; [29],70
same,Wheat plant response rating (0-100),[23]; [28],50
same,Wheat plant response rating (0 to 100 scale),[23]; [29],70
same,Soybean plant response rating (0-100),soybean (Glycine max) [24]; [28],0
same,Soybean plant response rating (0 to 100 scale),soybean (Glycine max) [24]; [29],50
same,"Plant response rating, Sedge, Umbrella (0 to 100 scale, 0 is no effect and 100 is complete control)",[25],0
same,"Plant response rating, Barnyardgrass (0 to 100 scale, 0 is no effect and 100 is complete control)",[26],0
same,"Plant response rating, Rice (0 to 100 scale, 0 is no effect and 100 is complete control)",rice (Oryza sativa),0
same,"Plant response rating, Ducksalad (0 to 100 scale, 0 is no effect and 100 is complete control)",[27],0
